According to patent publication US7250435B2, “Acylsemicarbazides as cyclin dependent kinase inhibitors useful as anti-cancer and anti-proliferative agents” (Bristol-Myers Squibb Pharma Company, priority 1999, dated 2007):

| Compound | melting point |
| --- | --- |
| COc1ccc(-c2[nH]nc3c2C(=O)c2c(NC(=O)NNC(=O)c4ccc(O)c(O)c4)cccc2-3)cc1 [Example CLXI, 3-(4-methoxyphenyl)-5-(2-(3,4-dihydroxybenzoyl)hydrazinecarboxamido)indeno[1,2-c]pyrazol-4-one] | > 300 °C |
| CN1CCN(CC(=O)Nc2cccc3c2C(=O)c2c-3n[nH]c2-c2ccc(N3CCOCC3)cc2)CC1 [Example LXXXII, 3-(4-(4-morpholinyl)phenyl)-5-((4-methyl-1-piperazinyl)acetamido)indeno[1,2-c]pyrazol-4-one] | 258 °C |
| CC(=O)Nc1cccc2c1C(=O)c1c-2n[nH]c1C(C)C [Example LXXXVI, 3-(i-propyl)-5-(acetamido)indeno[1,2-c]pyrazol-4-one] | > 250 °C |
| CC(=O)Nc1cccc2c1C(=O)c1c-2n[nH]c1C(C)(C)C [Example LXXXVIII, 3-(t-butyl)-5-(acetamido)indeno[1,2-c]pyrazol-4-one] | > 250 °C |
| COc1ccc(-c2[nH]nc3c2C(=O)c2c(NC(=O)NCc4ccc(N)cc4)cccc2-3)cc1 [Example XLIV, 3-(4-methoxyphenyl)-5-(4-aminobenzylcarbamoyl)aminoindeno[1,2-c]pyrazol-4-one] | > 300 °C |

The next lines start with the values.

| melting point | Compound |
| --- | --- |
| 257 °C | COc1ccc(-c2[nH]nc3c2C(=O)c2c(NC(=O)NNC(=O)c4ccccc4N)cccc2-3)cc1 [Example CLXV, 3-(4-methoxyphenyl)-5-(2-(2-aminobenzoyl)hydrazinecarboxamido)indeno[1,2-c]pyrazol-4-one] |
| > 300 °C | COc1ccc(-c2[nH]nc3c2C(=O)c2c(NC(=O)NN(C)C)cccc2-3)cc1 [Example LXIV, 3-(4-methoxyphenyl)-5-(dimethylaminocarbamoyl)aminoindeno[1,2-c]pyrazol-4-one] |
| 269 °C | CC(=O)Nc1cccc2c1C(=O)c1c-2n[nH]c1-c1cccs1 [Example LXXXIX, 3-(2-thienyl)-5-(acetamido)indeno[1,2-c]pyrazol-4-one] |
| > 300 °C | COc1ccc(-c2[nH]nc3c2C(=O)c2c(NC(=O)CCNc4ccncc4)cccc2-3)cc1 [Example XXXV, 3-(4-methoxyphenyl)-5-(4-pyridinylaminomethylacetamido)indeno[1,2-c]pyrazol-4-one] |
